Among the test systems are COLO 205 colon; SN12C renal; MDA-N; MALME-3M melanoma; RPMI-8226 leukemia; TK-10 renal; BT-549 breast; EKVX NSCLC; SK-MEL-5 melanoma; ACHN renal; A549 NSCLC; MDA-MB-231 breast; SK-MEL-28 melanoma; SK-MEL-2 melanoma; SF-268 CNS; HOP-62 NSCLC; HOP-92 NSCLC; HCT-116 colon.
Common to all, as to assay: growth of human tumour cells (NCI), 48 h

Where “and” joins values, the source holds several entries; their conditions need not be identical. Equal entries are not always repeated.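 Exposure lasted 48 hours, with cells grown in 96-well plates and compounds tested at five concentrations. At the GI50, growth is halved. At the TGI there is no net growth.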 Where only a bound is given, the exact number is not on record here.

Take `CN1N=C(c2ccccc2)C(C(c2ccccc2[N+](=O)[O-])C2C(=O)N(C)N=C2c2ccccc2)C1=O` (configuration not stated): the TGI in the experiment with COLO 205 colon, in the experiment on SN12C renal, in the experiment with MDA-N, in the experiment with MALME-3M melanoma, with RPMI-8226 leukemia and in the experiment on TK-10 renal was > 100 µM each time. Also, the TGI in the experiment on BT-549 breast, in the experiment with EKVX NSCLC, in the experiment with SK-MEL-5 melanoma, in the experiment on ACHN renal, in the experiment with A549 NSCLC and with MDA-MB-231 breast was > 100 µM each time. The TGI with SK-MEL-28 melanoma, with SK-MEL-2 melanoma, in the experiment with SF-268 CNS, with HOP-62 NSCLC, in the experiment with HOP-92 NSCLC and in the experiment on HCT-116 colon was > 100 µM each time.

For `CCN(CC)C(=S)SC1C(=O)NC(=O)NC1=O`, the TGI in the experiment on COLO 205 colon, with SN12C renal, with MDA-N, in the experiment on MALME-3M melanoma, with RPMI-8226 leukemia and in the experiment with TK-10 renal was > 100 µM in each case. Further, the TGI in the experiment on BT-549 breast, in the experiment on EKVX NSCLC, with SK-MEL-5 melanoma, with ACHN renal, in the experiment on A549 NSCLC and in the experiment with MDA-MB-231 breast was > 100 µM throughout. In addition, the TGI with SK-MEL-28 melanoma, with SK-MEL-2 melanoma, in the experiment with SF-268 CNS, in the experiment with HOP-62 NSCLC, in the experiment with HOP-92 NSCLC and with HCT-116 colon was > 100 µM throughout.

With `NC(N)=NS(=O)(=O)c1ccc(NNC(=O)c2cccc3c(=O)c4ccccc4[nH]c23)cc1`, the TGI in the experiment with COLO 205 colon was 54.7 µM; with SN12C renal it was > 100 µM; with MDA-N, 60.9 µM; in the experiment on MALME-3M melanoma, 35.4 µM; in the experiment on RPMI-8226 leukemia it was > 100 µM; with TK-10 renal it was 94 µM. Besides, the TGI in the experiment with BT-549 breast was 73.6 µM; in the experiment with EKVX NSCLC, 62.2 µM; in the experiment with SK-MEL-5 melanoma it was 36.1 µM; in the experiment on ACHN renal it was 61.4 µM; with A549 NSCLC, > 100 µM; in the experiment with MDA-MB-231 breast it was 95.2 µM. Moreover, the TGI was 65.9 µM in the experiment on SK-MEL-28 melanoma; 63.7 µM in the experiment on SK-MEL-2 melanoma; > 100 µM in the experiment with SF-268 CNS; 73.5 µM in the experiment on HOP-62 NSCLC; 79.6 µM in the experiment with HOP-92 NSCLC; 59.5 µM in the experiment on HCT-116 colon.

Regarding `CC(=O)OCC1OC(n2c(N)c(C#N)c(C)c(C#N)c2=S)C(OC(C)=O)C(OC(C)=O)C1OC(C)=O` (configuration not stated), the TGI with COLO 205 colon, in the experiment with SN12C renal, in the experiment on MDA-N, with MALME-3M melanoma, in the experiment with RPMI-8226 leukemia and with TK-10 renal was > 100 µM in each case. Besides, the TGI in the experiment with BT-549 breast, with EKVX NSCLC, with SK-MEL-5 melanoma, in the experiment on ACHN renal, with A549 NSCLC and in the experiment on MDA-MB-231 breast was > 100 µM throughout. Besides, the TGI in the experiment on SK-MEL-28 melanoma, with SK-MEL-2 melanoma, in the experiment with SF-268 CNS, in the experiment with HOP-62 NSCLC, in the experiment with HOP-92 NSCLC and in the experiment with HCT-116 colon was > 100 µM in each case. Besides, the GI50 was 40 µM and > 100 µM in the experiment on MDA-MB-231 breast; 43.8 µM and > 100 µM in the experiment on HOP-92 NSCLC.

As for `Cc1cc(S(=O)(=O)Nc2n[nH]c(Nc3ccc4ccccc4c3)n2)c(S)cc1Cl`, the TGI was > 100 µM with COLO 205 colon; > 100 µM in the experiment with SN12C renal; 39 µM with MDA-N; > 100 µM in the experiment with MALME-3M melanoma; > 100 µM in the experiment with RPMI-8226 leukemia; > 100 µM in the experiment on TK-10 renal. Moreover, the TGI in the experiment with BT-549 breast, in the experiment with EKVX NSCLC, in the experiment on SK-MEL-5 melanoma, with ACHN renal, with A549 NSCLC and with MDA-MB-231 breast was > 100 µM throughout. The TGI with SK-MEL-28 melanoma was > 100 µM; with SK-MEL-2 melanoma it was 73.7 µM; in the experiment with SF-268 CNS, > 100 µM; in the experiment on HOP-62 NSCLC, > 100 µM; in the experiment with HOP-92 NSCLC, > 100 µM; with HCT-116 colon it was > 100 µM.

Take `CCOC(=O)CCC(NC(=O)C(N)c1ccc([N+](=O)[O-])cc1)C(=O)NC(CCC(=O)OCC)C(=O)OCC` (configuration not stated): the TGI in the experiment with COLO 205 colon, with SN12C renal, with MDA-N, in the experiment with MALME-3M melanoma, in the experiment with RPMI-8226 leukemia and in the experiment on TK-10 renal was > 100 µM throughout. For the same molecule, the TGI with BT-549 breast, in the experiment with EKVX NSCLC, in the experiment with SK-MEL-5 melanoma, with ACHN renal, with A549 NSCLC and in the experiment with MDA-MB-231 breast was > 100 µM throughout. In addition, the TGI in the experiment with SK-MEL-28 melanoma, with SK-MEL-2 melanoma, in the experiment on HOP-62 NSCLC, in the experiment on HOP-92 NSCLC and in the experiment on HCT-116 colon was > 100 µM in each case.

Consider `COC1CC(C)([N+](=O)[O-])C(O)C(C)O1` (configuration not stated), for which the TGI in the experiment on COLO 205 colon, in the experiment on SN12C renal, in the experiment with MDA-N, with MALME-3M melanoma, in the experiment on RPMI-8226 leukemia and in the experiment on TK-10 renal was > 100 µM each time. Also, the TGI in the experiment on BT-549 breast, in the experiment with EKVX NSCLC, with SK-MEL-5 melanoma, in the experiment on ACHN renal, in the experiment on A549 NSCLC and in the experiment with MDA-MB-231 breast was > 100 µM each time. Further, the TGI with SK-MEL-28 melanoma, in the experiment with SK-MEL-2 melanoma, in the experiment on SF-268 CNS, in the experiment with HOP-62 NSCLC, in the experiment with HOP-92 NSCLC and with HCT-116 colon was > 100 µM in each case.
